Assay results as given in patent publication US20230255979A1, “METHODS OF TREATING ACUTE RESPIRATORY DISORDERS” (Bristol-Myers Squibb Company, priority 2020, published 2023).
“Also recorded” adds a separate entry of the source.

How the values were obtained:
[1] = tested on: whole blood; experiment: Pharmacodynamic assessment in MAD study, ex vivo LPS stimulation of whole blood (TruCulture); set-up: species or system human; settings: healthy volunteers, 150 mg, individual level data
Experimental: The study consisted of escalating multiple doses in sequential groups. Thirty-seven subjects were enrolled into 5 dose level cohorts (10, 30, 60, 120, and 150 mg).
Each subject participated in a screening phase, a treatment phase (included baseline). Eligible subjects were admitted to the study site on Day −1 and resided at the study site from Day −1 to Day 17. The first dose of study drug was administered on Day 1, under fasted conditions, according to the randomization schedule. The same QD dose was administered for the remainder of the planned treatment schedule (Day 2 to Day 14, inclusive). For each dose level cohort in Part 2, blood samples were collected on Day 1 predose (0-hour), and predose (0-hour) on Days 2, 3, 5, 8, 11, and 14. Blood samples were also collected at approximately the same time of the day as the Days 1 to 14 samples on Days 15, 17, 21, and 28. Subjects were discharged from the study site on Day 17 upon satisfactory safety review and completion of the required study procedures. For all dose level cohorts, subjects returned to the study site for outpatient visits on Day 21 and Day 28. There were no early terminations.
Ex vivo stimulation was performed in whole blood using the TruCulture® assay system (Myriad RBM, Austin, Tex.). […] Briefly, blood (1 ml) was drawn into the LPS-containing TruCulture tubes from each subject on the days listed in the study protocol. The truculture tubes were placed in a 37° C. block thermostat for 24±1 hrs and then frozen at −70° C. Media mixed with plasma was analyzed for TNF-α and other cytokine/chemokine levels. TNF-α inhibition in ex vivo LPS-stimulated blood was measured as percent change in TNF-α levels from baseline. Percent change in other cytokines/chemokines in the ex vivo stimulation assay was also measured with respect to their baseline levels.

[2] = tested on: macrophages; experiment: Cytokine production in LPS-stimulated macrophages; type: cell-based, human; settings: compound 4 h or 24 h
Experimental: (§1) For Macrophages: monocytes were differentiated into macrophages by stimulation with 50 ng/ml of MCS-F for 5 days followed by treatment with 50 ng/ml Interferon gamma for ˜16 hours. Macrophages were then plated, allowed to acclimate for 24 hours. […] All cells were cultured at 37° C. with 5% CO2 in a humidified incubator. Supernatants were collected for further analysis. Cytokine and chemokine analysis was performed in the supernatants using Magpix magnetic beads.

[3] = tested on: peripheral blood mononuclear cell (PBMCs); experiment: Cytokine assessment in PBMCs pretreated with compound, then LPS or SEB/IL-2 treatment; type: cell-based, human; settings: 1 h pretreatment
[4] = tested on: PBMCs; experiment: RT-PCR gene expression of cytokines and chemokines in LPS-treated PBMCs from HV; settings: LPS 1.5 hrs then compound 1.5 hrs
[5] = tested on: monocytes; experiment: Cytokine production in LPS-stimulated monocytes; type: cell-based, human
Experimental: (§2) In addition, PBMCs were isolated from buffy coat using Ficoll gradient method and were used for monocyte enrichment without CD16 depletion with the Stem Cell technologies kit (Cat #19058). […] All cells were cultured at 37° C. with 5% CO2 in a humidified incubator.
as §2, with “For Monocytes:” for “In addition,”, “incubator. Supernatant was collected for cytokine and chemokine analysis.” for “incubator.”
as §1

CCOCc1cnc(Cl)nc1Oc1ccc2c(ccc3sc4c(c32)NC[C@@H](C)NC4=O)n1 [Compound I-82]
inhibition of IL-6 following ex vivo LPS stimulation ([1]; FIG. 8B): inhibition of IL-6
inhibition of MIP-1A following ex vivo LPS stimulation ([1]; FIG. 8C): inhibition of MIP-1A
inhibition of MIP-1B following ex vivo LPS stimulation ([1]; FIG. 8D): inhibition of MIP-1B
inhibition of IL-6 in macrophages ([2]; LPS 3 or 23 hours, FIG. 4A): dose-dependent inhibition; also recorded: inhibits
inhibition of IL-1β in macrophages ([2]; LPS 3 or 23 hours, FIG. 4B): dose-dependent inhibition; also recorded: inhibits
inhibition of TNF-α in macrophages ([2]; LPS (100 ng/ml) 3 or 23 hours, FIG. 3): dose-dependent inhibition; also recorded: inhibits
inhibition of TNF-α in PBMCs ([3]; LPS stimulation 24 hours, FIG. 1A): dose dependent inhibition; also recorded: decreased in a dose-dependent manner
inhibition of TNF-α in PBMCs ([3]; SEB/IL-2 treatment 3 days, FIG. 1B): dose dependent inhibition; also recorded: decreased in a dose-dependent manner
inhibition of gene expression of MCP-1 ([4]; FIG. 5A): inhibition of gene expression; also recorded: inhibits gene expression
inhibition of gene expression of IL-6 ([4]; FIG. 5B): inhibition of gene expression; also recorded: inhibits gene expression
inhibition of gene expression of IL-1β ([4]; FIG. 5C): inhibition of gene expression; also recorded: inhibits gene expression
inhibition of gene expression of TNF-α ([4]; FIG. 6A): inhibits gene expression
inhibition of gene expression of GM-CSF ([4]; FIG. 6B): inhibition of gene expression; also recorded: inhibits gene expression
inhibition of gene expression of ZFP36 (TTP) ([4]; FIG. 6C): does not inhibit gene expression
inhibition of TNF-α in monocytes ([5]; LPS stimulation 23 hours, FIG. 2): dose dependent inhibition; also recorded: decreased in a dose-dependent manner
inhibition of TNF-α in monocytes ([5]; compound 4 h or 24 h, LPS 3 or 23 hours, FIG. 3): dose-dependent inhibition; also recorded: inhibits
inhibition of IL-6 in monocytes ([5]; compound 4 h or 24 h, LPS 3 or 23 hours, FIG. 4A): dose-dependent inhibition; also recorded: inhibits
inhibition of IL-1β in monocytes ([5]; compound 4 h or 24 h, LPS 3 or 23 hours, FIG. 4B): dose-dependent inhibition; also recorded: inhibits
